Source: ChEMBL document CHEMBL5346899, “PKM2/PDK1 dual-targeted shikonin derivatives restore the sensitivity of EGFR-mutated NSCLC cells to gefitinib by remodeling glucose metabolism” (Eur J Med Chem, 2023)
Calls of active or inactive are those of the source. No cut-off for these calls is given here.

Columns and labels:
[1] = test system: NCI-H1975; assay: Induction of apoptosis in human NCI-H1975 cells assessed as late apoptotic cells at 0.5 micromol/L incubated for 24 hrs by Annexin V-FITC/PI staining based analysis (reference value: 8.61%); format: functional; settings: dose 0.5 µmol/L, at 0.5 µM
[2] = test system: HCC827; assay: Induction of apoptosis in human HCC827 cells assessed as late apoptotic cells at 1 micromol/L incubated for 24 hrs by Annexin V-FITC/PI staining based analysis (reference value: 8.42%); format: functional; settings: dose 1 µmol/L, at 1 µM
[3] = test system: NCI-H1975; assay: Induction of apoptosis in human NCI-H1975 cells assessed as live cells at 0.5 micromol/L incubated for 24 hrs in presence of gefitinib by Annexin V-FITC/PI staining based analysis (reference value: 88.7%); format: functional; settings: dose 0.5 µmol/L, at 0.5 µM
[4] = test system: NCI-H1975; assay: Induction of mitochondrial transmembrane potential dissipation in human NCI-H1975 cells assessed as cells with low mitochondrial transmembrane potential at 0.5 micromol/L by FL-1/FL-2 channel based fluorescence analysis (reference value: 2.13%); format: functional; settings: dose 0.5 µmol/L; at 0.5 µM
[5] = test system: NCI-H1975; assay: Induction of apoptosis in human NCI-H1975 cells assessed as regulation of cleaved caspase-8 expression by Western blot analysis; format: functional, cell-based
[6] = test system: HCC827; assay: cells; format: functional, cell-based; settings: Homo sapiens, HCC827, 24 h
Description: Antiproliferative activity against human HCC827 cells assessed as inhibition of cell growth incubated for 24 hrs by CCK-8 assay

[7] = test system: NCI-H1975; assay: Induction of apoptosis in human NCI-H1975 cells with siRNA mediated […] knockdown assessed as late apoptotic cells at 1 micromol/L incubated for 24 hrs by Annexin V-FITC/PI staining based analysis (reference value: 6.25%); format: functional; settings: dose 1 µmol/L, at 1 µM
[8] = test system: NCI-H1975; assay: Induction of apoptosis in human NCI-H1975 cells assessed as regulation of PARP expression by Western blot analysis; format: functional, cell-based
[9] = test system: NCI-H1299; assay: cells; format: functional, cell-based; settings: Homo sapiens, NCI-H1299, 24 h
Description: Antiproliferative activity against human NCI-H1299 cells assessed as inhibition of cell growth incubated for 24 hrs by CCK-8 assay

[10] = test system: NCI-H1975; assay: Induction of apoptosis in human NCI-H1975 cells assessed as late apoptotic cells at 10 micromol/L incubated for 24 hrs by Annexin V-FITC/PI staining based analysis (reference value: 8.61%); format: functional; settings: dose 10 µmol/L, at 10 µM
[11] = test system: NCI-H1975; assay: Induction of apoptosis in human NCI-H1975 cells assessed as regulation of cleaved Caspase-3 expression by Western blot analysis; format: functional, cell-based
[12] = test system: NCI-H1975; assay: Induction of apoptosis in human NCI-H1975 cells assessed as late apoptotic cells at 2 micromol/L incubated for 24 hrs by Annexin V-FITC/PI staining based analysis (reference value: 2.66%); format: functional; settings: dose 2 µmol/L, at 2 µM
[13] = test system: NCI-H1299; assay: Induction of apoptosis in human NCI-H1299 cells assessed as late apoptotic cells at 2 micromol/L incubated for 24 hrs by Annexin V-FITC/PI staining based analysis (reference value: 14.9%); format: functional; settings: dose 2 µmol/L, at 2 µM
[14] = test system: NCI-H1975; assay: Induction of apoptosis in human NCI-H1975 cells assessed as late apoptotic cells at 0.5 micromol/L incubated for 24 hrs in presence of gefitinib by Annexin V-FITC/PI staining based analysis (reference value: 8.61%); format: functional; settings: dose 0.5 µmol/L, at 0.5 µM
[15] = test system: NCI-H1975; assay: Induction of apoptosis in human NCI-H1975 cells assessed as regulation of cytochrome c expression by Western blot analysis; format: functional, cell-based
[16] = test system: NCI-H1975; assay: Induction of apoptosis in human NCI-H1975 cells assessed as regulation of Caspase-3 expression by Western blot analysis; format: functional, cell-based
[17] = test system: NCI-H1975; assay: Induction of apoptosis in human NCI-H1975 cells assessed as regulation of caspase-8 expression by Western blot analysis; format: functional, cell-based
[18] = test system: NCI-H1975; assay: Inhibition of NADPH production in human NCI-H1975 cells incubated for 2 hrs by NADP+/NADPH assay; format: functional, cell-based
[19] = test system: NCI-H1975; assay: Antitumor activity against human NCI-H1975 cells xenografted in athymic nu/nu mouse assessed as induction of apoptosis in tumor at 2.4 to 4.8 mg/kg, ip administered every 2 days for 11 days by TUNEL assay; format: functional, organism-based; settings: dose 2.4-4.8 mg/kg, time 11.0 day
[20] = test system: HCC827; assay: Induction of apoptosis in human HCC827 cells assessed as early apoptotic cells at 2 micromol/L incubated for 24 hrs by Annexin V-FITC/PI staining based analysis (reference value: 9.14%); format: functional; settings: dose 2 µmol/L, at 2 µM
[21] = test system: NCI-H1975; assay: Upregulation of PDH protein expression in human NCI-H1975 cells at 1 to 2 micromol/L by Western blot analysis; format: functional, cell-based; settings: dose 1-2 µmol/L
[22] = test system: NCI-H1975; assay: Induction of apoptosis in human NCI-H1975 cells assessed as live cells at 0.5 micromol/L incubated for 24 hrs by Annexin V-FITC/PI staining based analysis (reference value: 88.7%); format: functional; settings: dose 0.5 µmol/L, at 0.5 µM
[23] = biological target: [Pyruvate dehydrogenase (acetyl-transferring)] kinase isozyme 1, mitochondrial (Homo sapiens, UniProt Q15118); assay: Inhibition of PDK1 in human HCC827 cells at 1 to 2 micromol/L by Western blot analysis; format: cell-based; settings: dose 1-2 µmol/L
[24] = test system: NCI-H1975; assay: Antitumor activity against human NCI-H1975 cells xenografted in athymic nu/nu mouse assessed as inhibition of tumor cell proliferation at 2.4 to 4.8 mg/kg, ip administered every 2 days for 11 days by Ki67 staining based analysis; format: functional, organism-based; settings: dose 2.4-4.8 mg/kg, time 11.0 day

SMILES: COC(=O)[C@H](CS[C@H](CC=C(C)C)C1=CC(=O)c2c(O)ccc(O)c2C1=O)NC(=O)CCCC[C@@H]1CCSC(c2ccccc2C)S1 (some centres undefined)
- Activity [1]: 11.2%
- Activity [2]: 12.1%
- Activity [3]: 57.5%
- Activity [4]: 11.8%
- Activity [5]: Active
- IC50 [6]: 5.19 µM
- Activity [7]: 4.95%
- Activity [8]: Active
- IC50 [9]: 5.48 µM
- Activity [10]: 9.56%
- Activity [11]: Active
- Activity [12]: 37.3%
- Activity [13]: 24.5%
- Activity [14]: 25%
- Activity [15]: Active
- Activity [16]: Active
- Activity [17]: Active
- inhibition [18]: Active
- Activity [19]: Active
- Activity [20]: 29.4%
- Activity [21]: Active
- Activity [22]: 87.3%
- inhibition [23]: Active
- Activity [24]: Active
